Assay results taken from patent US20240132522A1, “HETEROCYCLIC COMPOUNDS AND METHODS OF USE THEREOF” (1cBio, Inc., priority 2022, published 2024).
Structures can show the parent of a compound that is named as a salt.

Columns and labels:
[1] = tested on: DLD-1 wild-type colorectal adenocarcinoma cells; assay: Cell viability assay (Cell Titer-Glo), DLD-1 wild-type; type: cell-based; details: Homo sapiens, DLD-1, 168 h, 7 days, 50 cells/well
Excerpt: (§1) In some embodiments, the biological assay measures the effects that compounds of the present disclosure may have on the viability of cells, e.g., the viability of cancer cells. In some embodiments, DLD-1 wild-type and DLD-1 BRCA2(−/−) colorectal adenocarcinoma cells, an isogenic pair of cell lines differing in the presence and absence, respectively, of both BRCA2 alleles, are used to measure the effect of the disclosed compounds on the viability of cancer cells.
(§2) In some embodiments, the cells are harvested during the logarithmic growth period, counted, and seeded at a specified count in the wells of a 96- or 384-well cell culture plate. In some embodiments, after seeding, the cells are incubated, e.g., at 37° C., 5% CO2 overnight. In some embodiments, the cells are treated with compounds, e.g., with serially diluted test compounds at 8-11 concentrations within a desired concentration range, e.g., from 1 nM-10 μM, for the generation of dose-response curves. In some embodiments, the plate is further incubated, e.g., for another 3-7 days in a humidified incubator at 37° C. and 5% CO2. In some embodiments, cell viability is assessed by luminescence measurement after addition of Cell Titer-Glo reagent (Promega, Madison, Wis.) according to the manufacturer's instructions. In some embodiments, cell viability IC50 values are calculated using XLFit, equation 201: y=A+((B−A)/(1+((x/C)^D))), where A=bottom, B=top, C=IC50, and D=slope. In some embodiments, the effects of the test compounds on the viability of other cell lines such as MDA-MB-436, MDA-MB-231, SUM149PT, HCC1395, and UWB1.289 are determined in an analogous method.
(§3) Compounds of the present disclosure were tested for their effects on the viability of cancer cells. DLD-1 wild-type and DLD-1 BRCA2(−/−) colorectal adenocarcinoma cells, an isogenic pair of cell lines differing in the presence and absence, respectively, of both BRCA2 alleles, were used. The cells were harvested during the logarithmic growth period, counted, and seeded at 50 cells/well for DLD-1 wild-type and 200 cells/well for DLD-1 BRCA2(−/−) in a 384-well cell culture plate. After seeding, cells were incubated at 37° C., 5% CO2 overnight. Cells were treated with serially diluted test compounds at 10 concentrations from 1.5 nM-30 μM) for generation of dose response curves. The plate was further incubated for another 7 days in a humidified incubator at 37° C. and 5% CO2. Cell viability was assessed by luminescence measurement after addition of Cell Titer-Glo reagent (Promega, Madison, Wis.) according to the manufacturer's instructions. Cell viability IC50 values were calculated using XLFit, equation 201: y=A+((B−A)/(1+((x/C)^D))), where A=bottom, B=top, C=IC50, and D=slope. IC50 values are shown in Table B and are presented in ranges, in which “+++”<300 nM, 300 nM≤“++”<3000 nM, and “+”≥3000 nM. Effects of the test compounds on the viability of other cell lines such as MDA-MB-436, MDA-MB-231, SUM149PT, HCC1395, and UWB1.289 are determined in an analogous method.

[2] = tested on: DLD-1 BRCA2(−/−) colorectal adenocarcinoma cells; assay: Cell viability assay (Cell Titer-Glo), DLD-1 BRCA2(−/−); type: cell-based; details: Homo sapiens, DLD-1, 168 h, 7 days, 200 cells/well
Excerpt: as §1, §2, §3

## CCc1cc2ncc(CN3CC4CN(c5ccc(C(=O)NC)nc5)CC4C3)cc2[nH]c1=O (centres unmarked) [Compound No. 7, 5-(5-((7-ethyl-6-oxo-5,6-dihydro-1,5-naphthyridin-3-yl)methyl)hexahydropyrrolo[3,4-c]pyrrol-2(1H)-yl)-N-methylpicolinamide]
[1]
  IC50: ≥ 3000 nM
[2]
  IC50: 300 to 3000 nM

## CCc1cc2ncc(CN3CC4(C3)CN(c3ccc(C(=O)NC)nc3)C4)cc2[nH]c1=O [Compound No. 9, 5-(6-((7-ethyl-6-oxo-5,6-dihydro-1,5-naphthyridin-3-yl)methyl)-2,6-diazaspiro[3.3]heptan-2-yl)-N-methylpicolinamide formate]
[1]
  IC50: ≥ 3000 nM
[2]
  IC50: ≥ 3000 nM

## CCc1cc2ncc(CNC3CC(Nc4ccc(C(=O)NC)nc4)C3)cc2[nH]c1=O (centres unmarked) [Compound No. 29, 5-((3-(((7-ethyl-6-oxo-5,6-dihydro-1,5-naphthyridin-3-yl)methyl)amino)cyclobutyl)amino)-N-methylpicolinamide]
[1]
  IC50: ≥ 3000 nM
[2]
  IC50: ≥ 3000 nM

## CCc1cc2ncc(CN3CCCN(c4ccc(C(=O)NC)nc4)CC3)cc2[nH]c1=O [Compound No. 6, 5-(4-((7-ethyl-6-oxo-5H-1,5-naphthyridin-3-yl)methyl)-1,4-diazepan-1-yl)-N-methylpyridine-2-carboxamide]
[1]
  IC50: ≥ 3000 nM
[2]
  IC50: ≥ 3000 nM
